How the values were obtained:
[1] = molecular target: T1, panel of ninety-seven kinases (Homo sapiens, UniProt Q8NI60); test: DiscoverX KinomeScreen competition binding assay (kinase selectivity panel); settings: CABC1; screened at 3000 nM
T1 construct: purchased DiscoverX; host or cells: E. coli (BL21-derived, T7 phage display) or HEK-293
Procedure, shortened: (§1)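 Kinases on T7 phage (BL21-derived E. coli host) or DNA-tagged from HEK-293 cells compete between compound and a bead-immobilized biotinylated ligand. Captured kinase is eluted and quantified by qPCR. Compound is tested at 3000 nM (3 μM); binding is reported as % Ctrl, with DMSO as 100% and control compound as 0%.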

[2] = molecular target: T2, panel of ninety-seven kinases (Homo sapiens, UniProt P07333); test: as above; settings: CSF1R; screened at 3000 nM
T2 construct: purchased DiscoverX; host or cells: E. coli (BL21-derived, T7 phage display) or HEK-293
Procedure, shortened: as §1

[3] = molecular target: T3, panel of ninety-seven kinases (Homo sapiens, UniProt O15075); test: as above; settings: DCLK1; screened at 3000 nM
T3 construct: purchased DiscoverX; host or cells: E. coli (BL21-derived, T7 phage display) or HEK-293
Procedure, shortened: as §1

[4] = molecular target: T4, panel of ninety-seven kinases (Homo sapiens, UniProt P16234); test: as above; settings: PDGFRA; screened at 3000 nM
T4 construct: purchased DiscoverX; host or cells: E. coli (BL21-derived, T7 phage display) or HEK-293
Procedure, shortened: as §1

[5] = molecular target: T5, panel of ninety-seven kinases (Homo sapiens, UniProt O14757); test: as above; settings: CHEK1; screened at 3000 nM
T5 construct: purchased DiscoverX; host or cells: E. coli (BL21-derived, T7 phage display) or HEK-293
Procedure, shortened: as §1

[6] = molecular target: T6, panel of ninety-seven kinases (Homo sapiens, UniProt Q9BUB5); test: as above; settings: MKNK1; screened at 3000 nM
T6 construct: purchased DiscoverX; host or cells: E. coli (BL21-derived, T7 phage display) or HEK-293
Procedure, shortened: as §1

[7] = molecular target: T7, panel of ninety-seven kinases (Homo sapiens, UniProt P04629); test: as above; settings: NTRK1; screened at 3000 nM
T7 construct: purchased DiscoverX; host or cells: E. coli (BL21-derived, T7 phage display) or HEK-293
Procedure, shortened: as §1

[8] = molecular target: T8, panel of ninety-seven kinases (Homo sapiens, UniProt P12931); test: as above; settings: SRC; screened at 3000 nM
T8 construct: purchased DiscoverX; host or cells: E. coli (BL21-derived, T7 phage display) or HEK-293
Procedure, shortened: as §1

[9] = molecular target: T9, panel of ninety-seven kinases (Homo sapiens, UniProt P36897); test: as above; settings: TGFBR1; screened at 3000 nM
T9 construct: purchased DiscoverX; host or cells: E. coli (BL21-derived, T7 phage display) or HEK-293
Procedure, shortened: as §1

[10] = molecular target: T10, panel of ninety-seven kinases (Homo sapiens, UniProt Q02763); test: as above; settings: TEK; screened at 3000 nM
T10 construct: purchased DiscoverX; host or cells: E. coli (BL21-derived, T7 phage display) or HEK-293
Procedure, shortened: as §1

[11] = molecular target: T11, panel of ninety-seven kinases (Homo sapiens, UniProt Q15759); test: as above; settings: MAPK11; screened at 3000 nM
T11 construct: purchased DiscoverX; host or cells: E. coli (BL21-derived, T7 phage display) or HEK-293
Procedure, shortened: as §1

[12] = molecular target: T12, panel of ninety-seven kinases (Homo sapiens, UniProt Q15831); test: as above; settings: STK11; screened at 3000 nM
T12 construct: purchased DiscoverX; host or cells: E. coli (BL21-derived, T7 phage display) or HEK-293
Procedure, shortened: as §1

[13] = molecular target: T13, panel of ninety-seven kinases (Homo sapiens, UniProt P08581); test: as above; settings: MET; screened at 3000 nM
T13 construct: purchased DiscoverX; host or cells: E. coli (BL21-derived, T7 phage display) or HEK-293
Procedure, shortened: as §1

[14] = molecular target: T14, panel of ninety-seven kinases (Homo sapiens, UniProt Q9Y6R4); test: as above; settings: MAP3K4; screened at 3000 nM
T14 construct: purchased DiscoverX; host or cells: E. coli (BL21-derived, T7 phage display) or HEK-293
Procedure, shortened: as §1

[15] = molecular target: T15, panel of ninety-seven kinases (Homo sapiens, UniProt Q9P1W9); test: as above; settings: PIM2; screened at 3000 nM
T15 construct: purchased DiscoverX; host or cells: E. coli (BL21-derived, T7 phage display) or HEK-293
Procedure, shortened: as §1

[16] = molecular target: T16, panel of ninety-seven kinases (Homo sapiens, UniProt Q02750); test: as above; settings: MAP2K1; screened at 3000 nM
T16 construct: purchased DiscoverX; host or cells: E. coli (BL21-derived, T7 phage display) or HEK-293
Procedure, shortened: as §1

[17] = molecular target: T17, panel of ninety-seven kinases (Homo sapiens, UniProt Q02156); test: as above; settings: PRKCE; screened at 3000 nM
T17 construct: purchased DiscoverX; host or cells: E. coli (BL21-derived, T7 phage display) or HEK-293
Procedure, shortened: as §1

[18] = molecular target: T18, panel of ninety-seven kinases (Homo sapiens, UniProt P30530); test: as above; settings: AXL; screened at 3000 nM
T18 construct: purchased DiscoverX; host or cells: E. coli (BL21-derived, T7 phage display) or HEK-293
Procedure, shortened: as §1

[19] = system: HeLa cells stably expressing a Centrin1-GFP fusion protein; test: Centriole number (Centrin1-GFP) assay; format: cell-based; settings: 0.02 μM, 72 hours
Protocol: The effect of A-2 on centrosome function was therefore investigated further. HeLa cells stably expressing a Centrin1-GFP fusion protein were seeded into 96-well plates overnight. Cells were treated with atropisomer A-2 (at a concentration of 0.02 μM in DMSO) or DMSO control for 72 hours and then imaged using a fluorescence microscope. Multiple cell fields were captured for each treatment condition, and the images were subsequently analysed manually. Centrin1-GFP specifically marks centrioles as discrete foci, and therefore can be used to quantitate centriole number per cell. Thus, for each treatment condition, 100 cells were analysed and the number of centrioles present in each cell was recorded. The data were then separated into bins (no centrioles, 1 centriole, 2 centrioles, and greater than 2 centrioles) and are shown in FIG. 11.

T7 sequence (P04629 33-796): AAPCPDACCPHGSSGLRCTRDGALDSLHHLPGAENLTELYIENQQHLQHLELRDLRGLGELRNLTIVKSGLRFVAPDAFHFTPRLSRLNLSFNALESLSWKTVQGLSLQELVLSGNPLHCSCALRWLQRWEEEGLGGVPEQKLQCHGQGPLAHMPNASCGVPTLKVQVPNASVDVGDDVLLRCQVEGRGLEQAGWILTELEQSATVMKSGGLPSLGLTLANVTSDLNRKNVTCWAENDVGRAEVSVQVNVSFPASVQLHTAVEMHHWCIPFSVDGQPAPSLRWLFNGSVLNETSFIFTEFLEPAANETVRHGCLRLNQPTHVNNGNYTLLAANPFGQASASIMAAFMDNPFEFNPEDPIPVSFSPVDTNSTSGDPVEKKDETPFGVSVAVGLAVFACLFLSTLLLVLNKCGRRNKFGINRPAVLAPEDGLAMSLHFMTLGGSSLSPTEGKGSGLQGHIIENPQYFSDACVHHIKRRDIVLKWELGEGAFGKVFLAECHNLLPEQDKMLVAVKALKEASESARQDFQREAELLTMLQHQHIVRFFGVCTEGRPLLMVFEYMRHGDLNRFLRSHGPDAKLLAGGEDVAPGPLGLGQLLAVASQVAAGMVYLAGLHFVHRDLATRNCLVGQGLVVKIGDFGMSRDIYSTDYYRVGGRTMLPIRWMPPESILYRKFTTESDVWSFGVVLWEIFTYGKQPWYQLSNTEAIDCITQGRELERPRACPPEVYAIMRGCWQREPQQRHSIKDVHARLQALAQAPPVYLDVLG
T11 sequence (Q15759 whole entry): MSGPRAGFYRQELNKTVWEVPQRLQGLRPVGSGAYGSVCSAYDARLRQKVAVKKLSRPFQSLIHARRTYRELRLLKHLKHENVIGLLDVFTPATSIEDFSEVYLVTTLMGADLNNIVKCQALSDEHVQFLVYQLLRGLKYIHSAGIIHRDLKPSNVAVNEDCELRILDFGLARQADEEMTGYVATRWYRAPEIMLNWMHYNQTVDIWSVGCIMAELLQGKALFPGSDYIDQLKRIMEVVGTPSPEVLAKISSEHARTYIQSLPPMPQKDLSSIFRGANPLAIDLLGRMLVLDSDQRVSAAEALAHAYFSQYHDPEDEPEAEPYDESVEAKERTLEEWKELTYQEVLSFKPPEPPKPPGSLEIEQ
T6 sequence (Q9BUB5 whole entry): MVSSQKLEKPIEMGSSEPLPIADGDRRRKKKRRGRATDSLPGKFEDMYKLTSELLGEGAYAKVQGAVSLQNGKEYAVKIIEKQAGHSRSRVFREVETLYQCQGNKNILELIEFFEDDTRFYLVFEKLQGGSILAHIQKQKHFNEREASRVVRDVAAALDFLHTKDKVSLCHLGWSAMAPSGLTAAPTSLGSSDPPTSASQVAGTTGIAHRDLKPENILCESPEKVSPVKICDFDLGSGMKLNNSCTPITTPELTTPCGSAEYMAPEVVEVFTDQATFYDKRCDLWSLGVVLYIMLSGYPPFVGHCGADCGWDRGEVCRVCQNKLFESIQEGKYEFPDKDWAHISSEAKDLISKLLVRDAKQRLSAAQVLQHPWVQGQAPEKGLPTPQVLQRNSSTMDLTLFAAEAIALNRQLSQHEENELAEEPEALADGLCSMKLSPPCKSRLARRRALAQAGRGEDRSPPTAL
T13 sequence (P08581 25-1390): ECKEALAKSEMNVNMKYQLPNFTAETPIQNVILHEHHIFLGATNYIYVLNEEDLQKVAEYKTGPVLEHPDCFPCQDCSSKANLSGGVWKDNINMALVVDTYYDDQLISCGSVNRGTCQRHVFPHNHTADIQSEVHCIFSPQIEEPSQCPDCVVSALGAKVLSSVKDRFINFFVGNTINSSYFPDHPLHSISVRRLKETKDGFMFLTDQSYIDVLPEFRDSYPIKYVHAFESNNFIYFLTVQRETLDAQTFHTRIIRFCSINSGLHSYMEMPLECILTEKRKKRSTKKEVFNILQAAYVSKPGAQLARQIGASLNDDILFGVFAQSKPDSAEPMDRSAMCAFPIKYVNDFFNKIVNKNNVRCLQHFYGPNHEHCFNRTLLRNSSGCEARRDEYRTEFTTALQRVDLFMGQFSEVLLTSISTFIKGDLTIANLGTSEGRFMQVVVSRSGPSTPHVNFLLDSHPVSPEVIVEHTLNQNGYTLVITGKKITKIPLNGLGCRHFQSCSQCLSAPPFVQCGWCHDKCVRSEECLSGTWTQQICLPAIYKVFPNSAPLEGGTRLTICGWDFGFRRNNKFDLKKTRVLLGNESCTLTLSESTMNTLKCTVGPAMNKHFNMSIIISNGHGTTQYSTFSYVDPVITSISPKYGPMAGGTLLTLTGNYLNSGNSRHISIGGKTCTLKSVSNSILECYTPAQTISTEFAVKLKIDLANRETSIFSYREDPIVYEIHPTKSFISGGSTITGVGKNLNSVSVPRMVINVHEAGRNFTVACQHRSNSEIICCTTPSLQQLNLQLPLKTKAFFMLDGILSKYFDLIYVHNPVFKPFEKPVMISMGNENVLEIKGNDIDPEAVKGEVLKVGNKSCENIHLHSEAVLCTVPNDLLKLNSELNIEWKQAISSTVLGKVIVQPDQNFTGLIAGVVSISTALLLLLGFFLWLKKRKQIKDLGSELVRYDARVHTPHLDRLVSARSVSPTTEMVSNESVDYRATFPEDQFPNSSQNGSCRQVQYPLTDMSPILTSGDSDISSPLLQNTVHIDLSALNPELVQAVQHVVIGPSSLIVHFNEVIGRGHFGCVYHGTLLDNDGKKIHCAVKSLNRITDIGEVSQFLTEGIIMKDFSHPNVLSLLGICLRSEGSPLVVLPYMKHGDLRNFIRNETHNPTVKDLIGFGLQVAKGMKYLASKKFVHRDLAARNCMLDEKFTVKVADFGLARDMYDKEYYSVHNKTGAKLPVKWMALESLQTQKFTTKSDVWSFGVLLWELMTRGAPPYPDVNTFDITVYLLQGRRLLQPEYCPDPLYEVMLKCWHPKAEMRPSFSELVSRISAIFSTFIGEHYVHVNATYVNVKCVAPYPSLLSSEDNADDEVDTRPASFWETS
T3 sequence (O15075 whole entry): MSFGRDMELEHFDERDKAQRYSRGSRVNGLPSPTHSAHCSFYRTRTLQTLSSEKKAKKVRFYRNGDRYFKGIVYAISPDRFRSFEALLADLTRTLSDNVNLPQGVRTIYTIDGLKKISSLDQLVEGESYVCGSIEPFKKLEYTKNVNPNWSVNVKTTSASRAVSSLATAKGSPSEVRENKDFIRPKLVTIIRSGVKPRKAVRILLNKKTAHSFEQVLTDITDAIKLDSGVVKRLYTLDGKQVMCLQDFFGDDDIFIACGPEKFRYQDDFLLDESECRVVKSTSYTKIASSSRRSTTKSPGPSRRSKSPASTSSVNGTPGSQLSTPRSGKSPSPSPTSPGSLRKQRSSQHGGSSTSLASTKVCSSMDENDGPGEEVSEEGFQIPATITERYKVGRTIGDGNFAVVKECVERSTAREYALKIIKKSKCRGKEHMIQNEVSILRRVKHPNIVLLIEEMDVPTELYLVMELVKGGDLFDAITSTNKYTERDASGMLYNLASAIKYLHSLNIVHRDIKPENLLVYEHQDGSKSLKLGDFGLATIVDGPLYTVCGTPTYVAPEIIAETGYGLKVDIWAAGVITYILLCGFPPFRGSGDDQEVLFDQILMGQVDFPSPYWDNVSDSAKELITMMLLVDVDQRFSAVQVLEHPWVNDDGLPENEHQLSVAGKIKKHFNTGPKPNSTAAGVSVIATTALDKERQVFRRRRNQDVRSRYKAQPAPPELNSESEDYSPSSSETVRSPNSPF
T16 sequence (Q02750 whole entry): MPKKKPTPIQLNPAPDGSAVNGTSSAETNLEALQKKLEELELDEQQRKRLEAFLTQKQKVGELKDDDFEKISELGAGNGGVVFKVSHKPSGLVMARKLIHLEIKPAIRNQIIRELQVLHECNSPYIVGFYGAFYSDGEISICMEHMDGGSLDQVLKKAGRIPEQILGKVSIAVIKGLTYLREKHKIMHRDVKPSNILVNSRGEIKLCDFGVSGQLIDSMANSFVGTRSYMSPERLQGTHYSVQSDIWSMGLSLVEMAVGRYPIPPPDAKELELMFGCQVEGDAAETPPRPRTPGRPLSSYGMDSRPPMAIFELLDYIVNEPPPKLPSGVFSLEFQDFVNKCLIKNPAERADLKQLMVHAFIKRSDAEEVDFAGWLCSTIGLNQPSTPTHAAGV
T12 sequence (Q15831 whole entry): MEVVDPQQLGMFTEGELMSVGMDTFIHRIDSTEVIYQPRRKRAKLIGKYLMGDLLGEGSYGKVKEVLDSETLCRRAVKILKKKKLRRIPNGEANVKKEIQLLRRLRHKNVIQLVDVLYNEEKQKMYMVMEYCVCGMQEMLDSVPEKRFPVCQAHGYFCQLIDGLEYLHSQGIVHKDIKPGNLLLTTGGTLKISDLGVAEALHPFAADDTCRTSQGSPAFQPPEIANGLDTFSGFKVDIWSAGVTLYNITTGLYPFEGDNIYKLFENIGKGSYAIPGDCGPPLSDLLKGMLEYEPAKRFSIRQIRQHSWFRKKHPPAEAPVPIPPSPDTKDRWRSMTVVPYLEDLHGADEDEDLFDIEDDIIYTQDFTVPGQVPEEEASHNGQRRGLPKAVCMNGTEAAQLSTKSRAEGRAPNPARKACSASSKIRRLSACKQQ
T1 sequence (Q8NI60 163-647): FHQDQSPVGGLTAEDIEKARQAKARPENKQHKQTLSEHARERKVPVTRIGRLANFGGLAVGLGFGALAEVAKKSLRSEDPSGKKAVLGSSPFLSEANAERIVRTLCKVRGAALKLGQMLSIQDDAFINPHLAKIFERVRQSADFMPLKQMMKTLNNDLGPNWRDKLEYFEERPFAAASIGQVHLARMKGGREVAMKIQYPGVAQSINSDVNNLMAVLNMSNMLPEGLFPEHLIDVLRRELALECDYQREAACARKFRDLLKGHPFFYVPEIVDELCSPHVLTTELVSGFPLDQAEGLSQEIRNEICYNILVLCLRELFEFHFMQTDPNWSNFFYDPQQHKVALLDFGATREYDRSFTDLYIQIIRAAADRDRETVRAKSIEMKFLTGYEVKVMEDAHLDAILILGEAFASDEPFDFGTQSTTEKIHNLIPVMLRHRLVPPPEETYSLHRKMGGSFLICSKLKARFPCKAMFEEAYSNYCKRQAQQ

CN(C)CCNC(=O)c1ccc(-c2ccc(-c3ccc(Cl)cc3)n2-c2ccccc2C(F)(F)F)cc1 (single isomer, unassigned) [Atropisomer A-2]
% Ctrl @ 3 μM [1]: 63 % Ctrl
% Ctrl @ 3 μM [2]: 100 % Ctrl
% Ctrl @ 3 μM [3]: 87 % Ctrl
% Ctrl @ 3 μM [4]: 100 % Ctrl
% Ctrl @ 3 μM [5]: 100 % Ctrl
% Ctrl @ 3 μM [6]: 92 % Ctrl
% Ctrl @ 3 μM [7]: 100 % Ctrl
% Ctrl @ 3 μM [8]: 100 % Ctrl
% Ctrl @ 3 μM [9]: 95 % Ctrl
% Ctrl @ 3 μM [10]: 99 % Ctrl
% Ctrl @ 3 μM [11]: 99 % Ctrl
% Ctrl @ 3 μM [12]: 81 % Ctrl
% Ctrl @ 3 μM [13]: 100 % Ctrl
% Ctrl @ 3 μM [14]: 93 % Ctrl
% Ctrl @ 3 μM [15]: 100 % Ctrl
% Ctrl @ 3 μM [16]: 84 % Ctrl
% Ctrl @ 3 μM [17]: 99 % Ctrl
% Ctrl @ 3 μM [18]: 93 % Ctrl
effect on centriole number per cell [19]: evidence of PLK4 inhibition phenotypes

Reference: patent US12637424B2, “Pharmaceutical salt of an arylpyrrole derivative” (SENTINEL ONCOLOGY LIMITED, priority 2020, dated 2026)
